Reference: paper PMC6084929, “Differential effects of angiotensin II type I receptor blockers on reducing intraocular pressure and TGFβ signaling in the mouse retina” (PLoS ONE, 2018)

Key:
[1] = test system: mouse model of normotensive glaucoma; parameters: method as in PMID 25032856; conditions: cited from earlier work
[2] = test system: rat model with IOP elevation; parameters: method as in PMID 19608537; conditions: oral; cited from earlier work
[3] = Solubilization in unbuffered water; format: physicochemical; conditions: attempt to solubilize for drinking water delivery
[4] = target: AT1R; parameters: method as in PMID 20603272; conditions: cited from earlier work
[5] = test system: C57BL/6J mice; experiment: IOP measurement with Tonolab rebound tonometer in ARB-treated mice; format: in vivo, mouse; conditions: for Change in IOP compared to normal chow control / Average reduction of the median IOP / Rate of IOP reduction compared to control: 2 g/kg in chow; for Change in IOP compared to normal chow control: after 3 and 7 days of treatment; for Average reduction of the median IOP: compared to day 0; for Rate of IOP reduction compared to control: slope between days 3 and 7; for Median IOP at day 0: before start of chow treatment, by treatment group
Protocol: IOP of mice anesthetized with 2.5% isoflurane in oxygen delivered at 1.5 L/min by an inhalation anesthesia system (Vet Equip, Livermore, CA, USA) was measured using a Tonolab rebound tonometer (Icare, Vantaa, Finland) following manufacturer’s recommendations by an operator blinded to the treatment status of the mice. Measurements were performed within 3 mins of immobilization to minimize isoflurane-induced IOP changes and at the same time of day (1:00–3:00 p.m.) to avoid diurnal variation.
(§1) Sample sizes were not pre-determined by statistical methods, but are similar to or exceed numbers typical of similar experiments. The IOP changes of treated mice relative to the IOP changes of normal chow fed mice were presented with mean and 95% confidence interval based on t-statistics. A linear regression model for BP change from baseline was used to study effects of ARBs on BP, adjusting for baseline BP. For comparing IOP in groups of mice untreated or treated with ARBs for 3 and 7 days, a mixed effects model that included baseline IOP, left versus right eye, time of measurement and interaction between time and drug with random effects of intercept and slope within individual mice was used, adjusting for correlation between left and right eye within the same mouse, as well as repeated measurements over time. A one-way ANOVA was used for comparing chow pSmad2 fluorescence of mice untreated or treated with ARBs. The models for BP, IOP, and pSmad2 fluorescence were followed by Dunnett’s method for multiple comparisons correction. Differences in the change in IOP for each drug, relative to change in IOP of normal-fed control were evaluated at day 3 and day 7 of treatment, and differences in the rate of change in IOP were evaluated as the slope of the line defined by relative change at days 3 and 7. Corrected p-values < 0.05 were considered significant. Linear regression and mixed effect model analysis was performed with R 3.4.1 (R Core Team. R: A language and environment for statistical computing. R Foundation for Statistical Computing, Vienna, Austria. URL http://www.R-project.org/, 2013). All other statistical analysis was performed using GraphPad Prism version 7.00 for Windows software (GraphPad Software, La Jolla, CA, USA).

[6] = test system: TGFβ signaling (pSmad2); experiment: pSmad2 immunohistochemistry of the retina (RGC layer) as read-out of TGFβ signaling; format: in vivo, mouse; conditions: 2 g/kg in chow, 7 days, 3 days
Protocol: Eyes were enucleated and post-fixed in PBS/PFA for an additional 24–48 h and embedded in paraffin. Five micron-thick sections were deparaffinized, incubated at 90°C for 30 mins in 10 mM sodium citrate buffer, pH 6.0 for epitope retrieval and then incubated for 2 h at room temperature in blocking solution (PBS/5% normal donkey serum/1% BSA/0.1% Tween-20). Sections were then incubated with rabbit polyclonal antibody to pSmad2 (1:100, Thermo Fisher Scientific, MA, USA) in blocking solution overnight at 4°C in a humidified chamber. Following three 5 min washes in wash solution (PBS/0.1% Tween-20), sections were incubated in AlexaFluor-546 labeled donkey anti-rabbit IgG diluted 1:1000 in blocking solution for 2 h at room temperature in a dark humidified chamber. Sections were washed again three times for 5 mins each in wash solution and cover-slipped with Prolong Gold Antifade with DAPI mounting medium (Thermo Fisher Scientific). Sections were imaged using a Nikon AZ 100M upright, wide-field microscope using a 5x Plan Fluor/0.5 NA air objective and captured with a Nikon DS-Ri1 color camera (Nikon Instruments, Melville, NY, USA). Retinal images were acquired adjacent to the optic nerve head. Immunostaining and imaging experiments using the right eye of each mouse were carried out in batches of sections that included samples from two vehicle-fed mice and two samples each from losartan, irbesartan and telmisartan-fed mice using identical image acquisition parameters within each batch. Immunostaining and imaging experiments were carried out twice for each batch of samples. Mean fluorescence intensity of pSmad2 immunofluorescence was quantified using FIJI (ImageJ) biological image analysis package. Background-subtracted mean fluorescence intensity of the RGC layer was determined by subtracting the mean background intensity within the adjacent inner plexiform layer from the mean fluorescence intensity within a mask drawn around the RGC layer. Normalized background-subtracted mean fluorescence intensity within each batch of samples was determined by dividing the background-subtracted mean fluorescence intensity of each sample by the average of the background-subtracted mean fluorescence intensities of the two vehicle-fed control samples. For each mouse, normalized background-subtracted mean fluorescence intensity was determined as the average of duplicate experiments and is presented as normalized mean fluorescence.

[7] = test system: C57BL/6J mice; experiment: Systolic BP by tail-cuff method in ARB-treated mice; format: in vivo, mouse; conditions: 2 g drug/kg chow, day 3; p < 10^-4
Protocol: as §1, with “BP was measured by the tail-cuff method (BP 2000 Blood Pressure Analysis System, Visitech Systems, Apex, NC, USA) according to manufacturer recommendations and as previously described by an operator blinded to the treatment status of the mice. In brief, mice were restrained and their tail placed through an inflatable tail cuff held in place by adhesive tape. […] Mice were conditioned to the system prior to experimental measurements by being subjected to the full recording procedure daily for several days. Acclimation and BP measurements were performed between 9:00 and 11:00 a.m. Since diastolic measurements are inherently inaccurate with this method, only systolic BP is reported here. […] Sample” for “Sample”, “Corrected p-values < 0.05 were considered significant. Linear regression and mixed effect model analysis was performed with R 3.4.1 (R Core Team. R: A language and environment for statistical computing. R Foundation for Statistical Computing, Vienna, Austria. URL http://www.R-project.org/, 2013). All other statistical analysis was performed using GraphPad Prism version 7.00 for Windows software (GraphPad Software, La Jolla, CA, USA).” left out

[8] = test system: rabbit eyes with induced IOP elevation; parameters: method as in PMID 10942157; conditions: eye drops of 0.1% losartan in saline; cited from earlier work
[9] = test system: CD1 mice; conditions: cited from earlier work
[10] = test system: human glaucoma patients with elevated IOP, and normal controls; conditions: 50 mg oral dose; cited from earlier work
[11] = test system: monkeys with laser-induced IOP elevation; parameters: method as in PMID 15862169; conditions: cited from earlier work
[12] = test system: rabbits with experimental and inherited elevated IOP; parameters: method as in PMID 11840352; conditions: cited from earlier work
[13] = parameters: method as in PMID 23487168; conditions: cited from earlier work

SMILES	Solubility in unbuffered water [3]	Kd [4] [nM]	Change in IOP compared to normal chow control [5]	Average reduction of the median IOP [5] [%]	Rate of IOP reduction compared to control [5]	Median IOP at day 0 [5]	Effect on pSmad2 fluorescence of the RGC layer [6]	Systolic BP compared to mice fed normal chow [7]	further results
CCOc1nc2cccc(C(=O)O)c2n1Cc1ccc(-c2ccccc2-c2nnn[nH]2)cc1 [candesartan]	–	–	–	–	–	–	–	–	Effect on IOP ([1]; 10 mg/kg/day by oral gavage): no effect on IOP; Effect on RGCs and inner retina ([1]; orally administered): reduced loss of RGCs and thinning of the inner retina; Effect on IOP [2]: did not affect IOP; Effect on RGC loss [2]: reduced RGC loss
CCCCC1=NC2(CCCC2)C(=O)N1Cc1ccc(-c2ccccc2-c2nnn[nH]2)cc1 [irbesartan]	readily precipitated out of solution	~2	significant decreases in IOP	15.4	significantly greater than control	17.0	no significant effect	significantly lower BP	–
CCCCc1nc(Cl)c(CO)n1Cc1ccc(-c2ccccc2-c2nn[nH]n2)cc1 [losartan, Losartan potassium]	–	~10	did not significantly lower IOP	–	no significant effect	16.9	no significant effect	significantly lower BP	Effect on IOP [8]: IOP-lowering effects; Effect on IOP ([9]; 0.6 g/L in drinking water, normotensive eyes or eyes with microbead-induced elevated IOP): no effect on IOP; Effect on RGCs ([9]; oral via drinking water, eyes with elevated IOP induced by microbead injection): neuroprotective effect for RGCs; IOP after losartan treatment ([5]; 1.2 g/L losartan in drinking water, 3 days, 10 female C57BL/6 mice 1 year of age, right eye, mean +/-SD, p = 0.4): 15.4 +/- 1.9 mmHg; Effect on IOP ([5]; 1.2 g/L losartan in drinking water, 3 days, normal mice): did not affect IOP; IOP before losartan treatment (baseline) ([5]; 1.2 g/L losartan in drinking water, 10 female C57BL/6 mice 1 year of age, right eye, mean +/-SD): 14.8 +/-1.4 mmHg; Mean reduction of IOP [10]: ≤ 16%
CCCc1nc(C(C)(C)O)c(C(=O)O)n1Cc1ccc(-c2ccccc2-c2nnn[nH]2)cc1 [olmesartan]	–	–	–	–	–	–	–	–	Effect on IOP [11]: IOP-lowering effects; Effect on IOP [12]: IOP-lowering effects
CCCc1nc2c(C)cc(-c3nc4ccccc4n3C)cc2n1Cc1ccc(-c2ccccc2C(=O)O)cc1 [telmisartan]	readily precipitated out of solution	–	significant decreases in IOP	13.3	significantly greater than control	16.7	significantly reduced	significantly lower BP	Lipophilicity [13]: most lipophilic ARB; Reduction of pSmad2 fluorescence in the RGC layer compared to normal fed mice ([6]; p = 0.034): 70%
